Experimental data: patent publication US5602101A, “Antithrombotic agents” (priority 1994, dated 1997)

Legend:
human thrombin = molecular target: T1, human thrombin (Homo sapiens, UniProt P00734); experiment: Inhibition of amidase activity of thrombin (chromogenic substrate), Kass; type: biochemical; conditions: substrate N-benzoyl-Phe-Val-Arg-p-nitroanilide, pH 7.4
T1 construct: purified human thrombin Enzyme Research Laboratories, South Bend, Ind; purchased Enzyme Research Laboratories, South Bend, Ind
Protocol: (§1) The assay is carried out by mixing 50 μl buffer (0.03M Tris, 0.15M NaCl, pH 7.4), 25 μl of human thrombin solution (purified human thrombin Enzyme Research Laboratories, South Bend, Ind.) at 8 NIH units/ml and 25 μl of test compound in a solvent (50% aqueous methanol (v:v)). Then 150 μl of an aqueous solution of the chromogenic substrate (at 0.25 mg/ml) are added and the rates of hydrolysis of the substrate are measured by monitoring the reactions at 405 nm for the release of p-nitroaniline. Standard curves are constructed by plotting free thrombin concentration against hydrolysis rate. The hydrolysis rates observed with test compounds are then converted to "free thrombin" values in the respective assays by use of the standard curves. The bound thrombin (bound to test compound) is calculated by subtracting the amount of free thrombin observed in each assay from the known initial amount of thrombin used in the assay. The amount of free inhibitor in each assay is calculated by subtracting the number of moles of bound thrombin from the number of moles of added inhibitor (test compound).
The Kass value is the hypothetical equilibrium constant for the reaction between thrombin and the test compound (I). [drawing 53]
(§2) Kass is calculated for a range of concentrations of test compounds and the mean value is reported in units of liter per mole.

factor Xa = molecular target: T2, factor Xa (Homo sapiens, UniProt P00742); experiment: Serine protease inhibition, factor Xa (chromogenic substrate), Kass; type: biochemical; conditions: substrate N-Benzoyl-Ile-Glu-Gly-Arg-p-nitroanilide
T2 construct: Human factors X, Xa, IXa, XIa, and xIIa are purchased from Enzyme Research Laboratories; purchased Enzyme Research Laboratories, South Bend, Ind
T2 sequence (P00742 235-488 limits assumed): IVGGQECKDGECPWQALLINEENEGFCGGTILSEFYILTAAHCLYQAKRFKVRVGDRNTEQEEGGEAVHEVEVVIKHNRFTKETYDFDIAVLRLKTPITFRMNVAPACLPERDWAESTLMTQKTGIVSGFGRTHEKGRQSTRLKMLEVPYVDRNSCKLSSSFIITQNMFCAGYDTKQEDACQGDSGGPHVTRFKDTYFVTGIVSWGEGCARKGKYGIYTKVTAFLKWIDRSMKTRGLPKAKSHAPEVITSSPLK
T2 sequence (P00742 41-179 partner limits assumed): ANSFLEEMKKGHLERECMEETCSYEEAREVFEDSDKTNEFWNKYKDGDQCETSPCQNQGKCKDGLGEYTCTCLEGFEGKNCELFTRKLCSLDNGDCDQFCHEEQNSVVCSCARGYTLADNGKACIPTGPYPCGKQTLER
Protocol: as §1, §2
(§3) By substantially following the procedures described above for human thrombin, and using other human blood coagulation system serine proteases, and using fibrinolytic system serine proteases, with the appropriate chromogenic substrate, identified below, selectivity of the compounds of the present invention with respect to the coagulation factor serine proteases and to the fibrinolytic serine proteases are evaluated as well as their substantial lack of interference with human plasma clot fibrinolysis.
(§4) Human factors X, Xa, IXa, XIa, and xIIa are purchased from Enzyme Research Laboratories, South Bend, Ind.; human urokinase from Leo Pharmaceuticals, Denmark; and recombinant activated Protein C (aPC) is prepared at Eli Lilly and Co. substantially according to U.S. Pat. No. 4,981,952 incorporated by reference herein in its entirety. Chromogenic substrates: N-Benzoyl-Ile-Glu-Gly-Arg-p-nitroanilide (for factor Xa); N-Cbz-D-Arg-Gly-Arg-p-nitroanilide (for factor IXa assay as the factor Xa substrate) pyroglutamyl-Pro-Arg-p-nitroanilide (for factor XIa and for aPC); H-D-Pro-Phe-Arg-p-nitroanilide (for factor XIIa); and pyroglutamyl-Gly-Arg-p-nitroanilide (for urokinase); are purchased from KabiVitrum, Stockholm, Sweden, or from Midwest Biotech, Fishers, Indiana. Bovine trypsin is purchased from Worthington Biochemicals, Freehold, N.J., and human plasma kallikrein from Kabi Vitrum, Stockholm, Sweden. N-Benzoyl-Phe-Val-Arg-p-nitroanilide, the substrate for human thrombin and for trypsin, is synthesized according to procedures described above for the compounds of the present invention, known methods of peptide coupling from commercially available reactants, or was purchased from Midwest Biotech, Fishers, Ind. Human plasmin is purchased from Boehringer Mannheim, Indianapolis, Ind.; nt-PA is purchased as single chain activity reference from American Diagnostics, Greenwich, Conn.; modified-t-PA6 (mt-PA6) is prepared at Eli Lilly and Company by procedure known in the art (See, Burck, et al., J. Biol. Chem., 265, […] (1990). Plasmin chromogenic substrate H-D-Val-Leu-Lys-p-nitroanilide and tissue plasminegen activator (t-PA) substrate H-D-Ile-Pro-Arg-p-nitroanilide are purchased from Kabi Vitrum, Stockholm, Sweden.

Bovine trypsin = molecular target: T3, Bovine trypsin (Bos taurus, UniProt P00760); experiment: Serine protease inhibition, trypsin (chromogenic substrate), Kass; type: biochemical; conditions: substrate N-Benzoyl-Phe-Val-Arg-p-nitroanilide
T3 construct: Bovine trypsin is purchased from Worthington Biochemicals, Freehold, N.J; purchased Worthington Biochemicals, Freehold, N.J
T3 sequence (P00760 24-246): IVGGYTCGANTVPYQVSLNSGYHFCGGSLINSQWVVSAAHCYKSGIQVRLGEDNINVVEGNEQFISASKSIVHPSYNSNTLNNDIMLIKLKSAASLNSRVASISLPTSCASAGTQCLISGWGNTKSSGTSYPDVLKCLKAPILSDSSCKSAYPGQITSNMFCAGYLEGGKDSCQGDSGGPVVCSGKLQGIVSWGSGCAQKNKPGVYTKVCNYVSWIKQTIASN
Protocol: as §1, §2, §3, §4

Human plasmin = molecular target: T4, Human plasmin (Homo sapiens, UniProt P00747); experiment: Serine protease inhibition, plasmin (chromogenic substrate), Kass; type: biochemical; conditions: substrate H-D-Val-Leu-Lys-p-nitroanilide
T4 construct: Human plasmin is purchased from Boehringer Mannheim, Indianapolis, Ind; purchased Boehringer Mannheim, Indianapolis, Ind
T4 sequence (P00747 581-810 limits assumed): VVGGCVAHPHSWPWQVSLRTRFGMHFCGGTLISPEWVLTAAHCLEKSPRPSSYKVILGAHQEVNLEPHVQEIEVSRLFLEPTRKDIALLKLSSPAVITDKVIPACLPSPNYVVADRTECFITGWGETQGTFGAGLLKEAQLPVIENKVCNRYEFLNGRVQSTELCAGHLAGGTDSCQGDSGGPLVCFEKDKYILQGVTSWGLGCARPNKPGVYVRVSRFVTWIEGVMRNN
T4 sequence (P00747 97-580 partner limits assumed): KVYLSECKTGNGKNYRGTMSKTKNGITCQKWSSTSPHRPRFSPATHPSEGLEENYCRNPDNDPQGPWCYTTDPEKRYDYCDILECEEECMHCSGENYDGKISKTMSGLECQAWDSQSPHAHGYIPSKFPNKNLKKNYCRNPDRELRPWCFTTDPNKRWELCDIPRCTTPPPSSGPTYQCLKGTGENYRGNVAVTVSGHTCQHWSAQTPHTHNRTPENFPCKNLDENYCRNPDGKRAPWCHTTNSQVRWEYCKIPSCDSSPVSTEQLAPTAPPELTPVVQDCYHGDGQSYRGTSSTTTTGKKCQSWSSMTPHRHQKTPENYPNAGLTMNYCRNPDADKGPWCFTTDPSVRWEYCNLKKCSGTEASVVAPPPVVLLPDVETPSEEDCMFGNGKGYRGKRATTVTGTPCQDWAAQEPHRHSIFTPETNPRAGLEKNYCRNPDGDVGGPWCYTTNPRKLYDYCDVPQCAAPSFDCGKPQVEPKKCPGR
Protocol: as §1, §2, §3, §4

[1] = molecular target: T5, tissue plasminogen activator (t-PA) (Homo sapiens, UniProt P00750); experiment: Serine protease inhibition, t-PA (chromogenic substrate), Kass; type: biochemical; conditions: substrate H-D-Ile-Pro-Arg-p-nitroanilide
T5 construct: purchased American Diagnostics, Greenwich, Conn
T5 sequence (P00750 36-562): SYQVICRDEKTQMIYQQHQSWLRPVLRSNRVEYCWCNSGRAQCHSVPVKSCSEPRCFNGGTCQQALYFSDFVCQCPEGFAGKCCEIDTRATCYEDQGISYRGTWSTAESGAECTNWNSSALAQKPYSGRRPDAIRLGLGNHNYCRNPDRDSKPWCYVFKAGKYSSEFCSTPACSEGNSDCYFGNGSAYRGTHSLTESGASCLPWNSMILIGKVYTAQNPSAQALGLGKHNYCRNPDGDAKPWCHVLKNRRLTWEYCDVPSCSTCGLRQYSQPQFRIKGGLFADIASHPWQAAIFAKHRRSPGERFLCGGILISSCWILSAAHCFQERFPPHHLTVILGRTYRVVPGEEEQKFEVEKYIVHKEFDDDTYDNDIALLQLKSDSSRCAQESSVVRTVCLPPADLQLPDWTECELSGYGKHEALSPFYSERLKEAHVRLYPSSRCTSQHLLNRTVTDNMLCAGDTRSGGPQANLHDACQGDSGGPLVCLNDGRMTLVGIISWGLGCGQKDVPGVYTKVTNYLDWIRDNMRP
Protocol: as §1, §2, §3, §4

Human Plasma [2] = experiment: Anticoagulation in human plasma, thrombin time (TT); type: biochemical; conditions: concentration required to double the thrombin time
Protocol: (§5) Dog plasma and rat plasma are obtained from conscious mixed-breed hounds (either sex, Hazelton-LRE, Kalamazoo, Mich., U.S.A.) or from anesthetized male Sprague-Dawley rats (Harlan Sprague-Dawley, Inc., Indianapolis, Ind., U.S.A.) by venipuncture into 3.8 percent citrate. Fibrinogen is prepared from in-date ACD human blood as the fraction I-2 according to previous procedures and specifications. Smith, Biochem. Chem. […] Human fibrinogen is also purchased as 98 percent pure/plasmin free from American Diagnostics, Greenwich, Conn. Coagulation reagents ACTIN, Thromboplastin, and Human plasma are from Baxter Healthcare Corp., Dade Division, Miami, Fla. Bovine thrombin from Parke-Davis (Ann Arbor, Mich.) is used for coagulation assays in plasma. Coagulation assay procedures are as previously described. Smith, et al., Thrombosis Research, 5, 163-174 (1988). A CoAScreener coagulation instrument (American LABor, Inc.) is used for all coagulation assay measurements. The prothrombin time (PT) is measured by adding 0.05 ml saline and 0.05 ml Thromboplastin-C reagent to 0.05 ml test plasma. The activated partial thromboplastin time (APTT) is measured by incubation of 0.05 ml test plasma with 0.05 ml Actin reagent for 120 seconds followed by 0.05 ml CaCl2 (0.02M). […] The compounds of formula I are added to human or animal plasma over a wide range of concentrations to determine prolongation effects on the APTT, PT, and TT assays. Linear extrapolations are performed to estimate the concentrations required to double the clotting time for each assay.

Human Plasma [3] = experiment: Anticoagulation in human plasma, activated partial thromboplastin time (APTT); type: biochemical; conditions: concentration required to double the APTT
Protocol: as §5

Human Plasma [4] = experiment: Anticoagulation in human plasma, prothrombin time (PT); type: biochemical; conditions: concentration required to double the PT
Protocol: as §5

[5] = Index of bioavailability (plasma TT AUC, p.o. vs i.v.); conditions: rats, adjusted for dose
Protocol: Male Sprague Dawley rats (350-425 gm, Harlan Sprague Dawley Inc., Indianapolis, Ind.) are anesthetized with xylazine (20 mg/kg, s.c.) and ketamine (120 mg/kg, s.c.) and maintained on a heated water blanket (37° C.). The jugular vein(s) is cannulated to allow for infusions.
Plasma thrombin time (TT) and activated partial thromboplastin time (APTT) are measured with a fibrometer. Blood is sampled from a jugular catheter and collected in syringe containing sodium citrate (3.8%, 1 part to 9 parts blood). To measure TT, rat plasma (0.1 ml) is mixed with saline (0.1 ml) and bovine thrombin (0.1 ml, 30 U/ml in TRIS buffer; Parke Davis) at 37° C. For APTT, plasma (0.1 ml) and APTT solution (0.1 ml, Organon Teknika are incubated for 5 minutes (37° C.) and CaCl2 (0.01 ml, 0,025M) is added to start coagulation. Assays are done in duplicate and averaged.
The time course of the effect of the thrombin inhibitor upon TT is determined after i.v bolus administration to anesthetized rats and after oral treatment of fasted conscious rats. Due to limitations of blood volume and the number of points required to determine the time course from time of treatment to the time when the response returns to pretreatment values, two populations of rats are used. Each sample population represents alternating sequential time points. The average TT over the time course is used to calculate area under the curve (AUC). The index of bioavailability is calculated by the formula shown below and is expressed as percent relative activity.
The area under the curve (AUC) of the plasma TT time course is determined and adjusted for the dose. This index of bioavailability is termed "% Relative Activity" and is calculated as [formula]
Compound solutions are prepared fresh daily in normal saline and are injected as a bolus or are infused starting 15 min before and continuing throughout the experimental perturbation which is 15 minutes in the arteriovenous shunt model and 60 minutes in the FeCl3 model of arterial injury and in the spontaneous thrombolysis model. Bolus injection volume is 1 ml/kg for i.v., and 5 ml/kg for p.o. and infusion volume is 3 ml/hr.

Structure (SMILES) | Enzyme Kass, Human Thrombin (human thrombin) | Enzyme Kass, Xa (factor Xa) | Enzyme Kass, Trypsin (Bovine trypsin) | Enzyme Kass, Plasmin (Human plasmin) | Enzyme Kass, t-Pa [1] | 2 × Clotting time, TT (Human Plasma [2]) | 2 × Clotting time, APTT (Human Plasma [3]) | 2 × Clotting time, PT (Human Plasma [4]) | Index of Bioavailability, % Relative Activity [5]
Cl.Cn1c(C(=O)NC(Cc2ccccc2)C(=O)N2CCCC2C(=O)NC(C=O)CCCN=C(N)N)cc2ccccc21 [Example 1, NMI-D-Phe-Pro-Arg-H.HCl] | 850 L/mol × 10^6 | 0.51 L/mol × 10^6 | 120 L/mol × 10^6 | 7.9 L/mol × 10^6 | 31 L/mol × 10^6 | 43 ng/mL | 440 ng/mL | 870 ng/mL | 2%
Cl.NC(N)=NCCCC(C=O)NC(=O)C1CCCN1C(=O)C(Cc1ccccc1)NC(=O)c1ccc2ccccc2n1 (stereo not drawn) [Example 2] | 110 L/mol × 10^6 | 0.16 L/mol × 10^6 | 22 L/mol × 10^6 | 0.55 L/mol × 10^6 | 0.32 L/mol × 10^6 | 35 ng/mL | 1,100 ng/ML | 1,400 ng/ML | 1%
Cl.N=C(N)NCCC[C@@H](C=O)NC(=O)[C@@H]1CCCN1C(=O)[C@@H](Cc1ccccc1)NC(=O)c1cccnc1 [Example 3, N-Nicotinoyl-D-Phe-Pro-Arg-H.HCl] | 58 L/mol × 10^6 | 0.080 L/mol × 10^6 | 12 L/mol × 10^6 | 0.41 L/mol × 10^6 | 0.17 L/mol × 10^6 | 47 ng/mL | 1,300 ng/ML | 1,700 ng/ML | 3%
CS(=O)(=O)N[C@H](Cc1ccccc1)C(=O)N1CCC[C@H]1C(=O)N[C@H](C=O)CCCNC(=N)N.Cl [Example 7, MeSO2 -D-Phe-Pro-Arg-H.HCl] | 690 L/mol × 10^6 | 2.4 L/mol × 10^6 | 220 L/mol × 10^6 | 17 L/mol × 10^6 | 13 L/mol × 10^6 | 21 ng/mL | 330 ng/mL | 530 ng/mL | 27%
